Data from patent US11360104B2, “Microbial-based biosensors” (TRUSTEES OF BOSTON UNIVERSITY, priority 2017, dated 2022).
Like-named read-outs stand apart in the source and are kept apart here.

How the values were obtained:
PinR = PinR (Nocardioides simplex (Pimelobacter simplex), UniProt A0A0A1DUF2); assay: Cross-reactivity test with estradiol, 1:4:6 QD:TF:oligo sensor; format: biochemical; conditions: FIG. 44E
Text: FIGS. 44A-44E show a schematic of the biosensor and emission plots. […] These two graphs show the difference between our sensor (blue) and negative control (orange). The lowest number of acceptor molecules with the largest difference between the signal and noise (difference between blue and orange) is the concentration ratio that we want to work with moving forward. The sensor tested moving forward comprised a 1:4:6 ratio of QD:TF:oligo-dye. Fda=Donor emission intensity in the presence of acceptor; Fd=Donor emission intensity in the absence of acceptor; Relative Donor Emission=Fda/Fd; FRET efficiency=1−Fda/Fd; Fa=Acceptor emission intensity in the presence of the donor; [QD]=50 nM; Oligo-Cy5:QD=0-48. […] When the TF is bound to the QD and the oligo is bound to the TF, which is more likely in the absence of the analyte (red line), the donor emission intensity is decreased and the acceptor emission intensity is increased (energy transfer from the QD to the dye on the oligo). The presence of the analyte decreases the affinity of the TF for the oligo, so binding is less likely; as a result, the donor emission intensity is increased and the acceptor emission intensity decreased. […] This same sensor was tested with estradiol (estrogen) as well to test for cross-reactivity. […]

[1] = tested on: steroid responsive genome island (SRGI); assay: Whole transcriptome RNA-Seq of steroid treated P. simplex; format: cell-based, Pimelobacter simplex; conditions: P. simplex exposed to steroid vs solvent control, Log2 fold change
Text: (§1) In order to identify steroid binding Transcription Factors, a whole transcriptome RNA sequencing (RNA-Seq) screen was developed (FIG. 7). The growth of Pimelobacter simplex bacteria was profiled with respect to the starting inoculation density, solvent toxicity, and the addition of steroids (FIG. 16). […] P. simplex bacteria were screened against the steroid solvents ethanol (EtOH) and dimethyl sulfoxide (DMSO). […] Steroid growth curves were similarly performed using a starting OD of 0.005 and constant solvent dosing with titrations of steroids. […] P. simplex bacteria were grown in the presence of 700 μM testosterone, 21.88 μM progesterone, 87.50 μM estrone, 21.88 μM 17β-estradiol, 21.88 μM hydrocortisone, or 175.00 μM aldosterone concentrations were selected for comparison.
Using accession gene tags, genes were annotated for steroid relevant enzymes or transcription factors. […] Allosteric TF binding sequences are often palindromes and typically located near the start of its gene location in an intergenic space. With such a design, the allosteric TF can regulate itself or the open reading frame (ORF) near it in response to its effector molecule. […] Once identified, the TFs were cloned and recombinantly expressed for thorough characterization.
Cells were grown in 6 mL volumes of media at the OD, solvent, and steroid concentrations found from the growth curves in 14 mL polypropylene round-bottom tubes (Corning #352059) in technical duplicate. The same controls as in the steroid exposure growth curve were used for setting up RNA extraction samples. The cells were incubated at their corresponding temperature with continuous orbital shaking at 150 rpm until the end of lag-phase, mid-log phase, or stationary phase from the start of inoculation. Afterward, samples were removed and a 1:1 ratio of RNAprotect Bacteria Reagent (Qiagen #76506) was added followed by spinning down at 4° C. for 10 minutes at 4000 g. Supernatant was removed and the pellet re-suspended in 300 μL of RNAprotect and transferred into 2.0 mL Safe-Lock Tubes (Eppendorf #3101). The samples were then spun down once again at 4° C. for 10 minutes at 10000 g. Once the supernatant has been removed the samples were placed on ice and ready for RNA extraction. RNA extraction was done by Qiacube (Qiagen #9001292) set to the RNeasy Protect Bacteria Mini Kit protocol of bacterial cell pellet with enzymatic lysis. Tube A was prepared as described except with the addition of 150 mg/mL lysozyme (Sigma-Aldrich #L6876) and 20 mg/mL proteinase K (Roche #03115879001) all diluted in 1xTE buffer. RNA samples were subsequently quantified using Qubit RNA HS Assay Kit (Thermo Fisher Scientific #Q32852) and analyzed using a RNA 6000 Pico Kit (Agilent 5067-1513) in a 2100 Bioanalyzer (Agilent G2939A). RNA samples were either immediately used for RNA-Seq library preparation or stored long-term at −80° C.
RNA-Seq libraries were then produced from these samples using a slightly modified ScriptSeq v2 RNA-Seq Library Preparation Kit (Illumina 455A/22124) ensuring use of unique index primers through ScriptSeq Index PCR Primers (Sets 1-4) 48 rxns/set (Illumina #SSIP1234).

Pimelobacter simplex = assay: Solvent and steroid exposure growth curves; conditions: P. simplex, starting OD 0.005, constant solvent
Text: as §1
In order to properly determine the doubling time of the strain, growth curves were performed. All growth curves were done in 100 μL per well volumes in 96 well flat clear bottom black polystyrene TC-treated microplates which were individually wrapped with a lid and sterile (Corning #3603). Measurements were done by an Infinite M200 Pro (TECAN) spectrophotometer at the temperature suited for P. simplex. Readings were performed over 96 cycles of 15 minutes each at 600 nm absorbance with 25 flashes in a 3×3 (XY-Line) type reads per well. In between reads there was orbital shaking at 150 rpm frequency for a total of 10 minutes. In order to characterize the growth alone, a ½ serial dilution of 9 concentrations from 0.5-0.0020 OD600 nm were prepared in the respective media. Then each concentration was measured as previously described using a microplate reader (TECAN) and normalized against a media background control in technical triplicate. Afterward, an appropriate starting concentration of cells was chosen with a substantially long lag-phase, linear log phase, and a plateau of stationary-phase.
Once an appropriate starting cell concentration was chosen, a secondary growth curve was performed to test the toxicity levels of the solvents used to dissolve steroids of interest. Since the steroids used are heavily hydrophobic, they often need to be dissolved in organic solvents such as DMSO or ethanol which are toxic to bacteria at high concentrations. P. simplex was incubated under microplate reader conditions previously mentioned at a starting OD determined by the first growth curve with DMSO, ethanol, or H2O at ½ serial dilutions for a total of eight concentrations (50-0.39%) tested in technical triplicate. Two controls were included per solvent; a positive control without solvent and a media control which allowed for appropriate normalization. Solvent exposure growth curves allowed for choosing the maximum amount of solvent concentration that strains would sustain while maintaining relative viability in order to determine a range of steroid concentrations which could be used.
A tertiary growth curve was performed to test the toxicity levels of steroid specific to P. simplex. The strain was incubated under microplate reader conditions previously mentioned at a starting OD determined by the first growth curve and the highest solvent concentration corresponding to the steroid of interest with steroid at ½ serial dilutions for a total of seven concentrations tested in singlet. Testosterone, progesterone, 17β-estradiol, hydrocortisone, and aldosterone were all dissolved in ethanol while estrone was dissolved in DMSO. Three controls were included for each steroid; a positive control with the highest tolerable solvent concentration (%), a positive control with media, and a media control which allowed for normalization. Steroid exposure growth curves allowed for choosing the maximum amount of steroid concentration that P. simplex would sustain while maintaining relative viability.

[2] = tested on: TetR variant TetRd (TetR-6His, on QD2); assay: FRET sensor 3 (QD2-TetRd + Cy5-DNA) titrated with aTc; aTc-induced TF-DNA unbinding; format: biochemical
Text: (§2) The TetO cognate sequence comprises a 19 bp binding region. The 19 bp cognate sequence was flanked by 4-5 bp on each side to ensure binding, resulting in a 28 bp DNA oligo. One of the strands was labeled with the FRET acceptor Cy5 on both the 5′ and 3′ ends. A second 28 bp sequence with no affinity for TetR was similarly labeled to act as the negative control (Table 4).
(§3) Each sensor consists of Cy5-modified DNA acting as the FRET acceptor with either a fluorescent protein-transcription factor (FP-TF) fusion protein (expressed in E. coli) or quantum dot-transcription factor (QD-TF) conjugate as the donor.
(§4) A TF to DNA ratio was chosen for each sensor (1:3 for Sensor 1, 1:4.5 for Sensors 2 and 3) and kept constant for subsequent experiments testing sensor sensitivity to aTc.
(§5) To compare the three sensors, the sensor outputs were fit to a modified Hill equation written as:
(§6) [formula] where S0 is the intensity of the sensor signal with no analyte present, S1 is the intensity of the sensor signal at saturating analyte concentration, c is the analyte concentration, EC50 is the concentration at which there is 50% signal (aka the effective concentration, or EC50), and h is the Hill coefficient, which indicates cooperative binding. For visual comparison, the sensor outputs were normalized and plotted together (FIGS. 4A and B).
(§7) For Sensors 2 and 3, QDs and tetR-6His were mixed at a 1:4 ratio with a final QD concentration of 50 nM for self-assembly of the tetR-6His to the surface of the QDs^21.

[3] = tested on: TetR variant TetRc, tdTomato fusion (tetR-tdTomato); assay: FRET sensor 1 (tdTomato-TetRc + Cy5-DNA) titrated with aTc; aTc-induced TF-DNA unbinding; format: biochemical
Text: as §2, §3, §4, §5, §6

[4] = tested on: TetR variant TetRc (TetR-6His, on QD1); assay: FRET sensor 2 (QD1-TetRc + Cy5-DNA) titrated with aTc; aTc-induced TF-DNA unbinding; format: biochemical
Text: as §2, §3, §4, §5, §6, §7

Sequence of PinR (A0A0A1DUF2 entry or part of it): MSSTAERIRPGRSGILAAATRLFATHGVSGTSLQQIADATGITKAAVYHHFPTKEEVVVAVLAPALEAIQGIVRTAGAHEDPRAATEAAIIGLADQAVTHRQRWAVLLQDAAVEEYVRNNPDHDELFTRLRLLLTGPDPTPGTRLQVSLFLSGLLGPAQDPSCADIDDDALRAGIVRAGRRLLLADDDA

C[C@]12CC[C@@H]3c4ccc(O)cc4CC[C@H]3[C@@H]1CC[C@@H]2O [17β-estradiol, 17β-Estradiol] was tested, and the “impact of concentration on the sensor binding/unbinding (Fa/Fd)” value (PinR) was “no impact”, the “upregulation of genes inside the SRGI” value [1] was “not” and the “highest steroid concentration exhibiting normal growth profile” value (Pimelobacter simplex) was 21.88 µM.
In the case of Cc1c2c(c(O)c3c(O)cccc13)C(=O)[C@]1(O)C(=O)C(C(N)=O)=C(O)[C@@H](N(C)C)[C@@H]1C2 [aTc, anhydrotetracycline], the “h (Hill coefficient)” value ([2]; aTc, sensor 3) is reported as 2.14 ± 0.185, the EC50 ([2]; aTc, sensor 3, QD:TF:DNA 1:4:18, Table 6 fit, read-out: EC50) is reported as 133 ± 6.15 nM and the EC50 ([2]; sensor 3, legend of FIG. 4, read-out: c50 (analyte concentration that yields 50% signal, EC50)) is reported as 117 nM. For the same molecule, the “h (Hill coefficient)” value ([3]; aTc, sensor 1) was 1.57 ± 0.0802, the EC50 ([3]; aTc, sensor 1, tdTomato:TF:DNA 1:1:3, Table 6 fit, read-out: EC50) was 218 ± 9.18 nM and the EC50 ([3]; sensor 1, legend of FIG. 4, read-out: c50 (analyte concentration that yields 50% signal, EC50)) was 205 nM. For the same molecule, the “h (Hill coefficient)” value ([4]; aTc, sensor 2) was 2.37 ± 0.191, the EC50 ([4]; aTc, sensor 2, QD:TF:DNA 1:4:18, Table 6 fit, read-out: EC50) was 699 ± 26.4 nM and the EC50 ([4]; sensor 2, legend of FIG. 4, read-out: c50 (analyte concentration that yields 50% signal, EC50)) was 682 nM.
